Experimental findings from patent US20250282742A1, “BENZOFURAN DERIVATIVES FOR TARGETING AUTOPHAGY” (Automera PTE. LTD, priority 2024, published 2025) are described below.

Test [1] has as its system p62 oligomers in HeLa cells. The test can be described thus: p62 oligomerization assay (Western blot, 24 h treatment). The class given is cell-based. To be noted: fold change of p62 oligomer levels relative to DMSO control. On the procedure:
(§1) HeLa cells were seeded in 6-well plates (700,000 cells) and allowed to adhere overnight. Media was replaced one hour before administering either vehicle (DMSO) or test compounds. After 24 hours of treatment, the media was discarded, and cells were rinsed once with ice-cold 1×PBS before detached from plates with ice-cold RIPA Lysis and Extraction Buffer (Thermo Fisher Scientific) which was supplemented with protease and phosphatase inhibitors. The resulting cell suspensions were transferred to pre-chilled microcentrifuge tubes, incubated on ice for 20 min with intermittent mixing and then centrifuged at 12,000 rpm for 20 min at 4° C. The supernatants were then aspirated slowly and transferred into new tubes kept on ice. The protein concentration in the samples was determined using BCA kit (Thermo Fisher Scientific) as per manufacturer's instructions.
(§2) For the p62 oligomerization and LC3 lipidation assays, cell lysates were prepared using RIPA buffer supplemented with 2% SDS and benzonase (Sigma). The lysates were then combined with 4× Laemmli protein sample buffer (Bio-Rad), heated at 70° C. for 10 min and subjected to a brief centrifugation of 10-15 seconds.
(§3) For p62 oligomerization and LC3 lipidation assays, lysates containing 30 μg of protein and for BRD4 and FKBP12(F36V) degradation assays, lysates containing 20 μg of protein, were loaded slowly into the wells of 4-20% gradient Tris-glycine gels (Bio-Rad). The gels were run at 100V until completion and transferred onto PVDF membranes. Membranes were blocked using 5% milk in TBS-Tween (0.1%) buffer at room temperature for 1 hour. The membranes were incubated with primary antibody in 5% milk-TBST with shaking, overnight at 4° C. The primary antibodies used were: p62 (Novus Biologicals 2C11, H00008878-MO1), LC3A/B (Cell Signalling Technology D3U4C, 12741S), FKBP12 (Abcam ab24373), BRD4 (Cell Signalling Technology E2A7X, 13440S), GAPDH (Cell Signalling Technology D4C6R, 97166S), and β-Actin (Proteintech 66009-1-Ig). Following primary antibody incubation, membranes were washed thrice with TBST 10 min before and after incubation with secondary-HRP conjugated antibody in 5% milk-TBST for 1 hour at room temperature. The secondary antibodies used were: Anti-Mouse IgG HRP Conjugate (Promega W4021B) and Anti-Rabbit IgG HRP Conjugate (Promega W4011B). For the p62 oligomerization assay, the total protein levels were assessed using Ponceau staining (Thermo Fisher Scientific) of PVDF membrane as per recommendation by manufacturer's guidelines.
(§4) Imaging was acquired using SuperSignal™ West Pico PLUS Chemiluminescent Substrate (Thermo Fisher Scientific) with iBright Invitrogen FL100 imaging system. Band signal intensity, reflective of protein concentrations, were quantified using Invitrogen™ iBright™ Analysis and Image J software.
HeLa cells were treated with compounds for 24 hours to evaluate the effect of these compounds on p62 oligomerisation activity. The resulting changes in levels of p62 oligomers were assessed by Western blotting, as described in experimental procedures. The fold change of p62 oligomer levels induced by compound treatment relative to vehicle control (DMSO) was determined and summarized in Table 8. Specifically, FIGS. 2A-C show Western blot images and their corresponding quantification showing the levels of high molecular weight (100-200 kDa) p62 oligomers by 24 hours compound treatments at listed concentrations, relative to vehicle control (DMSO) in HeLa cells. Protein loading consistencies was assessed by Ponceau staining (not shown).
In general terms: A western blot detects proteins with antibodies after separation by electrophoresis.

Test [2] concerns LC3 protein (LC3-II/LC3-I) in HeLa cells. The experiment in a line: LC3 lipidation assay (LC3-II/LC3-I, Western blot, 24 h treatment). The class given is cell-based. The following applies: fold change in LC3-II/LC3-I relative to DMSO control. On the procedure: as §1, §2, §3, §4
HeLa cells were treated with compounds for 24 hours to evaluate the effect of these compounds on LC3-II/LC3-I levels, a measure of autophagy activation. The changes in levels of LC3-I, LC3-II and β-Actin (loading control) were assessed by Western blotting, as described in experimental procedures. The fold increase of LC3-II/LC3-I levels induced by compound treatment relative to vehicle control (DMSO) was determined and summarized in Table 9. Specifically, FIGS. 3A-C show Western blot images and their corresponding quantification showing the lipidation levels of LC3 protein (LC3-II/LC3-I) by 24 hours compound treatments at listed concentrations, relative to vehicle control (DMSO) in HeLa cells.

Take `OCCNCc1ccc2cc(CCc3ccc(F)cc3)oc2c1` [Compound 49, 2-(((2-(4-fluorophenethyl)benzofuran-6-yl)methyl)amino)ethan-1-ol]: the p62 oligomerization result in test [1] is “++ (> 2-fold change relative to DMSO control)”. In addition, the LC3 lipidation entry in test [2] is listed as “+ (< 2-fold change in LC3-II/LC3-I relative to DMSO control)”.
Taken in the same sequence, the figures for `OCCNCc1ccc2cc(Cc3ccc(F)cc3)oc2c1` [compound 12] were “++ (> 2-fold change relative to DMSO control)” and “+ (< 2-fold change in LC3-II/LC3-I relative to DMSO control)”.
As for `Cc1c(Cc2ccccc2)oc2cc(CNCCO)ccc12` [Compound 42, 2-(((2-benzyl-3-methylbenzofuran-6-yl)methyl)amino)ethan-1-ol], the p62 oligomerization entry in test [1] is given as “+ (< 2-fold change relative to DMSO control)”. For the same molecule, the LC3 lipidation result in test [2] is listed as “+ (< 2-fold change in LC3-II/LC3-I relative to DMSO control)”.
Regarding `OCCNCc1ccc2cc(-c3ccccc3)oc2c1` [Compound 2, 2-(((2-phenylbenzofuran-6-yl)methyl)amino)ethan-1-ol], in test [1], the p62 oligomerization result is listed as “++ (> 2-fold change relative to DMSO control)”. The LC3 lipidation result in test [2] is recorded as “++ (> 2-fold change in LC3-II/LC3-I relative to DMSO control)”.
Taken in the same sequence, the figures for `OCCNCc1ccc2cc(Cc3ccccc3)oc2c1` [compound 1] were “+ (< 2-fold change relative to DMSO control)” and “+ (< 2-fold change in LC3-II/LC3-I relative to DMSO control)”.
As to `OCCNCc1ccc2cc(Cc3ccc(Cl)cc3)oc2c1` [Compound 13, 2-(((2-(4-chlorobenzyl)benzofuran-6-yl)methyl)amino)ethan-1-ol], the p62 oligomerization result in test [1] is listed as “++ (> 2-fold change relative to DMSO control)”. Besides, the LC3 lipidation result in test [2] was “++ (> 2-fold change in LC3-II/LC3-I relative to DMSO control)”.
